# Measurements published in patent publication US10285989B2, “Pyrimidinone amide compounds as PDE2 inhibitors” (Merck Sharp & Dohme Corp., priority 2015, dated 2019).
# Where two headings read alike, the source gives them in different places.
# Legend:
# Rhesus PDE2A3 = Rhesus PDE2A3 (Macaca mulatta, UniProt B3VTJ2); experiment: PDE2 fluorescence polarization (IMAP FP) inhibition assay, rhesus PDE2A3; assay type: biochemical, rhesus macaque
# human PDE2A1 = human PDE2A1 (Homo sapiens (Human), UniProt O00408); experiment: PDE2 IMAP FP inhibition assay, human PDE2A1 (selectivity panel format); assay type: biochemical
# human PDE2A1, sequence (O00408 other isoform, or with tags, fused parts or gaps): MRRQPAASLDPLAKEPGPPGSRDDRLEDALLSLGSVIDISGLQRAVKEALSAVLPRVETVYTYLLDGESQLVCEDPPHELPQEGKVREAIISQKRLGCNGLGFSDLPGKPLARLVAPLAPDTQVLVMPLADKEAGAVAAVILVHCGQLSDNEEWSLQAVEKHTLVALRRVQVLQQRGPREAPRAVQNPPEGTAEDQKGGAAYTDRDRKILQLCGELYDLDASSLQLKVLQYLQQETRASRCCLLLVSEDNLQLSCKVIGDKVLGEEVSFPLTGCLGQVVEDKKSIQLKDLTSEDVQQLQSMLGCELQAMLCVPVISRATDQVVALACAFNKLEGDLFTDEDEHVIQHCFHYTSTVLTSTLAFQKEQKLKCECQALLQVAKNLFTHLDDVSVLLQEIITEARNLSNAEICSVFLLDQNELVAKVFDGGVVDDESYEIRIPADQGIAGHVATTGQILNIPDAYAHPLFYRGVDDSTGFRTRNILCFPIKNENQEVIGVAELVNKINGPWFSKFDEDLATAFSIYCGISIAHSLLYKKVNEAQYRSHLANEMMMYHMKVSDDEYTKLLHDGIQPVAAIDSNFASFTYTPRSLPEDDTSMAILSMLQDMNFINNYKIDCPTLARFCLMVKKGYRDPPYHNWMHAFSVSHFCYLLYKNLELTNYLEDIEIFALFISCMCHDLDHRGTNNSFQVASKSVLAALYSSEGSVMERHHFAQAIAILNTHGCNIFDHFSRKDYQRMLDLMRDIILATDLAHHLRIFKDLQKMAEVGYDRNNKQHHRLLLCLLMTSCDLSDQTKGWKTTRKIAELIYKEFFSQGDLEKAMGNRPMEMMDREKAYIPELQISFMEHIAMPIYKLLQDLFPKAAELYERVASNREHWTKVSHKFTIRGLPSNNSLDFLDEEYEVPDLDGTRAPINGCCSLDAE
# Procedure, shortened: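 IMAP fluorescence polarization assay; substrate 50 nM FAM-cAMP with 1000 nM cGMP, enzyme at ~20% conversion, in 10 mM Tris pH 7.2, 10 mM MgCl2, 1 mM DTT, 0.01% Tween-20. 60 min room temperature, stopped with IMAP binding reagent, 1 h, then parallel/perpendicular fluorescence read.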
# P-glycoprotein (P-gp) = P-glycoprotein (P-gp) (Homo sapiens (Human), UniProt P08183); experiment: P-gp transport, experimental BA/AB ratio, human; assay type: in vitro ADME; conditions: LLC-PK1, 1 μM substrate concentration
# P-glycoprotein (P-gp), sequence (P08183 whole entry): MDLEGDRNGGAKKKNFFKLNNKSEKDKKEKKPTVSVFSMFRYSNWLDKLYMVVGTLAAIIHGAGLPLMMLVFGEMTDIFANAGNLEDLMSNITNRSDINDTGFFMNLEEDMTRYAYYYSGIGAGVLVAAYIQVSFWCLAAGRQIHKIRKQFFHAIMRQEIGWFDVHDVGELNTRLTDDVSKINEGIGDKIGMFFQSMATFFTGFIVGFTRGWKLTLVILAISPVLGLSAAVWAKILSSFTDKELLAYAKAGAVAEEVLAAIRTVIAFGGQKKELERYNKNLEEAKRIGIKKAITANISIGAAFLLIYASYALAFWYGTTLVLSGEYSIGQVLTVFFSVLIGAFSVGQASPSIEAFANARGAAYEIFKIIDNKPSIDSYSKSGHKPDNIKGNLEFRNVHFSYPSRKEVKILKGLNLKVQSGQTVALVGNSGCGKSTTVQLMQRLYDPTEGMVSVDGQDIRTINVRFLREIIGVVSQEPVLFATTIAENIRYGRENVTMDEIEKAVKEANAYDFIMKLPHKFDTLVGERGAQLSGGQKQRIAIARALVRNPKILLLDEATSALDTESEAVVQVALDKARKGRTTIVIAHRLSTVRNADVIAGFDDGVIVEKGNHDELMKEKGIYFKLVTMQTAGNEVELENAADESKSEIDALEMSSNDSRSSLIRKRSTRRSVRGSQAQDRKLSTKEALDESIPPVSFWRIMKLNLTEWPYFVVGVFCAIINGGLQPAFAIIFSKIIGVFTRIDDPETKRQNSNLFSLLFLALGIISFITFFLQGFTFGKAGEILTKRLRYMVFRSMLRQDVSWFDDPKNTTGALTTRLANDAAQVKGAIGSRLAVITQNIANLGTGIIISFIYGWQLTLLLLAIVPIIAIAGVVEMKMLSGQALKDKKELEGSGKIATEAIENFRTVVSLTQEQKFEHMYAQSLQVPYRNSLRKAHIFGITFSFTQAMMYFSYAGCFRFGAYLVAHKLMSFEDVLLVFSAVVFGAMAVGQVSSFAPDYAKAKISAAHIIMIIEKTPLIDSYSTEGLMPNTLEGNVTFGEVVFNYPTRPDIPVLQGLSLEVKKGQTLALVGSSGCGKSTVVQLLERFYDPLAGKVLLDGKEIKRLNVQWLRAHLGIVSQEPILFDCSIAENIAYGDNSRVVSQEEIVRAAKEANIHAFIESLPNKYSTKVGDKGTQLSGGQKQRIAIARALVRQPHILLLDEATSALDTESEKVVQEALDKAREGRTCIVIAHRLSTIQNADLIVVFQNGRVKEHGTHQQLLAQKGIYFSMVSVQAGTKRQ
# Description: (§1) See Doan et al. “Passive permeability and P-glycoprotein-mediated efflux differentiate central nervous system (CNS) and non-CNS marketed drugs”, J. Pharm. Exper. […] Desirable human BA/AB ratio is less than 2.0. […] See, for example, Desai, et al. Integration of in Silico and in Vitro Tools for Scaffold Optimization during Drug Discovery: Predicting P-glycoprotein Efflux” Mol. Pharmac.
# [1] = target: P-glycoprotein (P-gp, rat Mdr1a) (Rattus norvegicus, UniProt Q6PSM0); experiment: P-gp transport, experimental BA/AB ratio, rat LLC-Mdr1a; assay type: in vitro ADME; conditions: LLC-PK1; rat LLC-Mdrla; 1 μM substrate concentration
# P-glycoprotein (P-gp, rat Mdr1a), sequence (Q6PSM0 1-1272): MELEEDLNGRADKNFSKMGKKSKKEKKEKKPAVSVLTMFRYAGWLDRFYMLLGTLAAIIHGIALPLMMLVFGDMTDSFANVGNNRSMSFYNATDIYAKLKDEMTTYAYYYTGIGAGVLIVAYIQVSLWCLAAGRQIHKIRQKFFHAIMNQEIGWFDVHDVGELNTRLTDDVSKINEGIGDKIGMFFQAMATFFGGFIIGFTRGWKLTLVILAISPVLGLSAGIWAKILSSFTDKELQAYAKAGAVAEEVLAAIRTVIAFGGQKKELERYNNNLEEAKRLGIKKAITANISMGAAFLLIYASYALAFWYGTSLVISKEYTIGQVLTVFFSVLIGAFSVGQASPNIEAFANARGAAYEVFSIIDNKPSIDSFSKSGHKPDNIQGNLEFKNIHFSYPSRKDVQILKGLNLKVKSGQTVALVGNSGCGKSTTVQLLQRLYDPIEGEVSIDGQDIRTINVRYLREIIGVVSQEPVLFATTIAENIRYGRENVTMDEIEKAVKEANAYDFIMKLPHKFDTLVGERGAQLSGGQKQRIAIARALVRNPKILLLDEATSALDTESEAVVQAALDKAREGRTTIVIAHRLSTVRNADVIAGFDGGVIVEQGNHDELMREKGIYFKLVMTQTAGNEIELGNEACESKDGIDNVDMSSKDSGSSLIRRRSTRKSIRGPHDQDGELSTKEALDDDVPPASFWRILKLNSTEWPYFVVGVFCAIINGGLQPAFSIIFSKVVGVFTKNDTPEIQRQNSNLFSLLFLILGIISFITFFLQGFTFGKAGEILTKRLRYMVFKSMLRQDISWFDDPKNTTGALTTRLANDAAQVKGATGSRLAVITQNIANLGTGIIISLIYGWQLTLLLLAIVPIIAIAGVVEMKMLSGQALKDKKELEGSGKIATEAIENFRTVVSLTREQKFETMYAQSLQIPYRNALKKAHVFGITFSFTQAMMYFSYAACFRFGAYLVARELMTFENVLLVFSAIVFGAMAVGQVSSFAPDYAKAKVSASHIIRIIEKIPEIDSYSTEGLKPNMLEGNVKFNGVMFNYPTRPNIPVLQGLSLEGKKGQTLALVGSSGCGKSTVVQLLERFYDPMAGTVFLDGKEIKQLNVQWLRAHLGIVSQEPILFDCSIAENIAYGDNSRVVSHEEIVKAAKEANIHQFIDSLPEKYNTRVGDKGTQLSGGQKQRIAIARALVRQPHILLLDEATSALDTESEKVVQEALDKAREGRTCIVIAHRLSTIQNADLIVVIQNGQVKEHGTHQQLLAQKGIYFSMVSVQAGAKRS
# Description: as §1
# [2] = Lab A, read-out: Rhesus PDE2 Ki (nM) - Lab A
# [3] = Lab B, read-out: Human PDE2 Ki (nM) - Lab B
# [4] = Lab B, read-out: Rhesus PDE2 Ki (nM) - Lab B
# [5] = Lab A, read-out: Human PDE2 Ki (nM) - Lab A
# Rhesus PDE2A3, sequence (B3VTJ2 1-941): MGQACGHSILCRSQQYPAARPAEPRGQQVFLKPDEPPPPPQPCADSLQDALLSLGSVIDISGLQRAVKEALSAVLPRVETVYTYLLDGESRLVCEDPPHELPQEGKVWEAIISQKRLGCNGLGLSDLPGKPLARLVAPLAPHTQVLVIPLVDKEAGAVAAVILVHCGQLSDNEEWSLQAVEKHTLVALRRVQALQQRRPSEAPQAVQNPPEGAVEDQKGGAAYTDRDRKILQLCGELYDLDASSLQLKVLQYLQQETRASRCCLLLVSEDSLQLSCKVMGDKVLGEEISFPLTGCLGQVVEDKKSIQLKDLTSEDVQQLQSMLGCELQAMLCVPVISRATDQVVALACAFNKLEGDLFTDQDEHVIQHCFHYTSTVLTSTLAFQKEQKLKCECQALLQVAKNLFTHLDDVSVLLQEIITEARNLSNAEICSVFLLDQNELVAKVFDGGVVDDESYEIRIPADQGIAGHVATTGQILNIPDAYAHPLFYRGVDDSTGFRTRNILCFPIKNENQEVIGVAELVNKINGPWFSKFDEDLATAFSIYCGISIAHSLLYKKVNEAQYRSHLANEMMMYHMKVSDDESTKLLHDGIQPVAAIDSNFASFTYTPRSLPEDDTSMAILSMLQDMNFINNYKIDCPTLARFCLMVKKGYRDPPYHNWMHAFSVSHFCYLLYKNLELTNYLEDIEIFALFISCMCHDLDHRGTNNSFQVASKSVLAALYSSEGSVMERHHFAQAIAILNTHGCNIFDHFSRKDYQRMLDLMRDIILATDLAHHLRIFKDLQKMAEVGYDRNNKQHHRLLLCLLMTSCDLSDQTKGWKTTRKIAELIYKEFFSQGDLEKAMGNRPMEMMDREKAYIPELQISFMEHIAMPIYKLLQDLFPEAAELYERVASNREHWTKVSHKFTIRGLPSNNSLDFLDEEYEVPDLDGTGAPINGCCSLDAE
Structure (SMILES),Ki (Rhesus PDE2A3; [2]) [nM],Ki (human PDE2A1; [3]) [nM],efflux ratio at 1 μM (P-glycoprotein (P-gp)),efflux ratio at 1 μM [1],Ki (Rhesus PDE2A3; [4]) [nM],Ki (human PDE2A1; [5]) [nM]
"O=C(N[C@@H](c1ccc(C(F)(F)F)cc1)C1CC1)c1cc(=O)[nH]c(N2CC[C@H](F)C2)n1 [Example 167, N-{(R)-cyclopropyl[4-(trifluoromethyl)phenyl]methyl}-2-[(3S)-3-fluoropyrrolidin-1-yl]-6-oxo-1,6-dihydropyrimidine-4-carboxamide]",–,2.3,1.9,27.4,1.4,–
"CC(C)[C@@H](NC(=O)c1cc(=O)[nH]c(N2CC[C@H](F)C2)n1)c1ccc(C(F)(F)F)c(F)c1 [Example 168, 2-[(3S)-3-fluoropyrrolidin-1-yl]-N-{(1R)-1-[3-fluoro-4-(trifluoromethyl)phenyl]-2-methylpropyl}-6-oxo-1,6-dihydropyrimidine-4-carboxamide]",–,0.47,4.1,21.2,0.5,–
"CC(C)(C)[C@@H](NC(=O)c1cc(=O)[nH]c(N2CC[C@H](F)C2)n1)c1ccc(C(F)(F)F)cc1 [Example 169, N-{(1R)-2,2-dimethyl-1-[4-(trifluoromethyl)phenyl]propyl}-2-[(3S)-3-fluoropyrrolidin-1-yl]-6-oxo-1,6-dihydropyrimidine-4-carboxamide]",–,0.17,2.5,9.8,0.14,–
"CCCOc1nc(C(=O)N[C@H](C)c2ccc(C(F)(F)F)cc2)cc(=O)[nH]1 [Example 178, 6-oxo-2-propoxy-N-{(1R)-1-[4-(trifluoromethyl)phenyl]ethyl}-1,6-dihydropyrimidine-4-carboxamide]",58,–,0.4,1,–,52
"CC(C)OCCCOc1nc(C(=O)NC(C)c2ccc(C(F)(F)F)cc2)cc(=O)[nH]1 (stereo not shown) [Example 183, 2-[3-(1-methylethoxy)propoxy]-6-oxo-N-{1-[4-(trifluoromethyl)phenyl]ethyl}-1,6-dihydro pyrimidine-4-carboxamide]",29,–,1.2,7.9,–,23
"COc1ccc(OCCCOc2nc(C(=O)NC(C)c3ccc(C(F)(F)F)cc3)cc(=O)[nH]2)cc1 (stereo not shown) [Example 194, 2-[3-(4-methoxyphenoxy)propoxy]-6-oxo-N-{1-[4-(trifluoromethyl)phenyl]ethyl}-1,6-dihydropyrimidine-4-carboxamide]",~5.2,–,1,8.4,–,4.4

# Continued by falling Ki (Rhesus PDE2A3; [2]), values first:
Ki (Rhesus PDE2A3; [2]) [nM],Ki (human PDE2A1; [3]) [nM],efflux ratio at 1 μM (P-glycoprotein (P-gp)),efflux ratio at 1 μM [1],Ki (Rhesus PDE2A3; [4]) [nM],Ki (human PDE2A1; [5]) [nM],Structure (SMILES)
4.1,4.2,0.7,15.8,5,–,"CC(C)[C@@H](NC(=O)c1cc(=O)[nH]c(N2CC[C@@H](F)C2)n1)c1ccc(OC(F)(F)F)c(F)c1 [Example 163, 2-[(3R)-3-fluoropyrrolidin-1-yl]-N-{(R)-1-[3-fluoro-4-(trifluoromethoxy)phenyl]-2-methylpropyl}-6-oxo-1,6-dihydropyrimidine-4-carboxamide]"
2.4,3.9,2.6,7.5,4,–,"CC(C)[C@@H](NC(=O)c1cc(=O)[nH]c(N2CC(F)C2)n1)c1ccc(OC(F)(F)F)c(F)c1 [Example 164, 2-(3-fluoroazetidin-1-yl)-N-{(1R)-1-[3-fluoro-4-(trifluoromethoxy)phenyl]-2-methylpropyl}-6-oxo-1,6-dihydropyrimidine-4-carboxamide]"
0.51,0.61,2.5,17.9,–,–,"CC(C)[C@@H](NC(=O)c1cc(=O)[nH]c(N2CC[C@H](F)C2)n1)c1ccc(OC(F)(F)F)c(F)c1 [Example 162, 2-[(3S)-3-fluoropyrrolidin-1-yl]-N-{(1R)-1-[3-fluoro-4-(trifluoromethoxy)phenyl]-2-methylpropyl}-6-oxo-1,6-dihydropyrimidine-4-carboxamide]"
0.33,0.45,3.6,20.1,0.5,–,"CC(C)[C@@H](NC(=O)c1cc(=O)[nH]c(N2CC[C@H](F)C2)n1)c1ccc(SC(F)(F)F)c(F)c1 [Example 165, 2-[(3S)-3-fluoropyrrolidin-1-yl]-N-[(1R)-1-{3-fluoro-4-[(trifluoromethyl)sulfanyl]phenyl}-2-methylpropyl]-6-oxo-1,6-dihydropyrimidine-4-carboxamide]"
